According to patent US9493524B2, “Methods for treatment of stroke or cerebrovascular accidents using an ETB receptor agonist” (MIDWESTERN UNIVERSITY, priority 2007, dated 2016):

Assays:
Assay type in all cases: in vivo, Sprague-Dawley rats
[1] = tested on: urethane anesthetized rat; assay: Cerebral blood perfusion by Laser Doppler Flowmetry
Description: (§1) Male Sprague-Dawley rats weighing 323±4 grams (g) were anesthetized with urethane (ethyl carbamate, Sigma Aldrich, St. Louis, Mo.) dissolved in isotonic saline (0.9% NaCl, Hospira, Inc., Lake Forest, Ill.). The rats were administered a dose of 0.15 g per 100 g body weight via intraperitoneal (i.p.) injection.
Cerebral Perfusion: A burr hole was drilled into the rat skull about 2 millimeters (mm) to the left of midline. Cerebrovascular perfusion was measured via a fiber optic probe (PF407) applied to the surface of the rat brain. The probe was connected to a Periflux PF2b 4000 Laser Doppler Flowmetry unit (Perimed, Stockholm, Sweden).
(§2) The rats were randomly selected for various studies. Following surgery the rats were allowed to stabilize for 30 minutes and a 15 minutes baseline recording of all parameters (blood pressure, heart rate, cerebral blood flow, and renal blood flow) was obtained prior to the administration of the pretreatment followed by IRL-1620 (Suc-[Glu 9, Ala 11,15], American Peptide Co, Inc., Sunnyville, Calif.) or ET-1 (Ala 1,3,11,15, RBI Sigma, Natick, Mass.). BQ-788, a selective endothelin B antagonist, is the sodium salt of N-cis-2,6-dimethylpiperidinocarbonyl-L-gamma-methylleucyl-D-1-methoxycarbonyl triptophanyl-DNIe (see Proc. Natl. Acad. Sci. USA, 91, pp. 4892-4896 (1994)) BMS is BMS 182, 874, which is a selective endothelin A antagonist having a structure
(§3) Group 1: Animals (n=4) were pretreated with saline 15 minutes (min) prior to administration of IRL-1620 (5 μg/kg, i.v.).
(§4) Group 2: Animals (n=4) were pretreated with BMS (5 mg/kg, i.v.) 15 min prior to administration of IRL-1620 (5 μg/kg, i.v.).
(§5) Group 3: Animals (n=4) were pretreated with BMS (15 mg/kg, i.v.) 15 min prior to administration of IRL-1620 (5 μg/kg, i.v.).
(§6) Group 4: Animals (n=4) were pretreated with BQ788 (1 μg/kg, i.v.) 15 min prior to administration of IRL-1620 (5 μg/kg, i.v.).
(§7) Group 1: Animals (n=4) were pretreated with saline 15 min prior to administration of ET-1 (0.75 μg/kg, i.v.).
(§8) Group 2: Animals (n=4) were pretreated with BMS (5 mg/kg, i.v.) 15 min prior to administration of ET-1 (0.75 μg/kg, i.v.).
(§9) Group 3: Animals (n=4) were pretreated with BMS (15 mg/kg, i.v.) 15 min prior to administration of ET-1 (0.75 μg/kg, i.v.).
(§10) Group 4: Animals (n=4) were pretreated with BQ788 (1 μg/kg, i.v.) 15 min prior to administration of ET-1 (0.75 μg/kg, i.v.).
(§11) Blood pressure, heart rate, cerebral blood perfusion, and renal blood perfusion all were recorded for 2 hours following the final injection. Blood gases were analyzed prior to administration of any drugs, and at 60 and 120 min following administration of IRL-1620 or ET-1. At the end of each experiment, the animals were euthanized with an overdose of urethane i.v. In the figures, all data values are presented as mean±SEM. One-sample t-tests and one-way ANOVAs were used to test the differences within and between the groups. A P value of P<0.05 was considered significant.

[2] = tested on: urethane anesthetized rat; assay: Renal blood perfusion by Laser Doppler Flowmetry; details: i.v.
Description: as §1
Renal Perfusion: The right kidney was dissected retroperitoneally. Renal perfusion was measured via a fiber optic probe (PF408) applied to the surface of the rat kidney. The probe was connected to a Periflux PF2b 4000 Laser Doppler Flowmetry unit (Perimed, Stockholm, Sweden).
as §2, §3, §4, §5, §6, §7, §8, §9, §10, §11

[3] = tested on: urethane anesthetized rat; assay: Blood pressure / mean arterial pressure recording; details: i.v.; for decrease in mean arterial pressure: IRL-1620 5.0 μg/kg; for decrease in mean arterial pressure / increase in mean arterial pressure (subsequent hypertension): FIG. 11
Description: as §1
(§12) Blood Pressure and Heart Rate: The femoral vein and artery were cannulated. The arterial cannula was connected to a Gould P23 ID pressure transducer for recording the blood pressure on a Grass P7D polygraph through a 7PI preamplifier. The heart rate was recorded through a 7P4B Grass tachograph, triggered from blood pressure signals. Drugs were administered via the venous cannula.
as §2, §3, §4, §5, §6, §7, §8, §9, §10, §11

[4] = tested on: urethane anesthetized rat; assay: Heart rate recording; details: IRL-1620 5 μg/kg; for heart rate: 1 μg/kg BQ788 pretreatment, mean±SEM, in bpm (unit assumed)
Description: as §1, §12, §2, §3, §4, §5
Group 4: Animals (n=4) were pretreated with BQ788 (1 μg/kg, i.v.) 15 min prior to administration of IRL-1620 (5 μg/kg, i.v.). […]
as §11

[5] = tested on: urethane anesthetized rat; assay: Arterial blood gas analysis; details: IRL-1620 5 μg/kg, i.v., ET-1 0.75 μg/kg
Description: as §1
Blood Gas Analysis: Arterial blood gases were monitored to determine the effects on pH, pCO2, and pO2. Blood was drawn from the arteriole cannula and analyzed using a GEM Premier 3000 unit (Instrument Laboratory, Lexington, Mass.).
as §11

[6] = time 0 min (prior to any drugs)

CCCC[C@@H](NC(=O)[C@@H](Cc1cn(C(=O)OC)c2ccccc12)NC(=O)[C@H](CC(C)(C)C)NC(=O)N1[C@H](C)CCC[C@@H]1C)C(=O)O [BQ788, N-cis-2,6-dimethylpiperidinocarbonyl-L-gamma-methylleucyl-D-1-methoxycarbonyl triptophanyl-DNIe]
effect of pretreatment on the effect of ET-1 on cerebral blood flow ([1]; BMS 5 and 15 mg/kg, i.v., BQ788 1 μg/kg, ET-1 0.75 μg/kg, FIG. 7): no significant change
effect of pretreatment on the effect of IRL-1620 on cerebral blood flow ([1]; BQ788 1 μg/kg, i.v. 15 min prior to IRL-1620 5 μg/kg, FIG. 6): effectively blocked
effect of pretreatment on the effect of ET-1 on renal blood flow ([2]; BMS 5 and 15 mg/kg, BQ788 1 μg/kg, ET-1 0.75 μg/kg, FIG. 10): No pretreatment significantly altered
effect of pretreatment on the effect of IRL-1620 on renal blood flow ([2]; BMS 5 and 15 mg/kg, BQ788 1 μg/kg, IRL-1620 5 μg/kg, FIG. 9): effectively blocked
effect of pretreatment on the effect of ET-1 on mean arterial pressure ([3]; BMS 5 and 15 mg/kg, BQ788 1 μg/kg, ET-1 0.75 μg/kg, FIG. 13): failed to alter
effect of pretreatment on the effect of IRL-1620 on mean arterial pressure ([3]; BMS 5 and 15 mg/kg, BQ788 1 μg/kg, IRL-1620 5 μg/kg, FIG. 12): effectively blocked
heart rate ([4]; i.v., time 0 min): 344 ± 5
heart rate ([4]; i.v., time 1 min): 350 ± 6
heart rate ([4]; i.v., time 5 min): 345 ± 4
heart rate ([4]; i.v., time 10 min): 345 ± 4
heart rate ([4]; i.v., time 15 min): 347 ± 3
heart rate ([4]; i.v., time 30 min): 347 ± 4
heart rate ([4]; i.v., time 45 min): 350 ± 6
heart rate ([4]; i.v., time 60 min): 351 ± 9
heart rate ([4]; i.v., time 90 min): 351 ± 13
heart rate ([4]; i.v., time 120 min): 353 ± 13
effect of pretreatment on the effect of IRL-1620 on heart rate (Table 1) ([4]; BMS 5 and 15 mg/kg, BQ788, i.v.): effectively blocked

ET-1: endothelin-1 (ET-1), a 21-amino acid peptide (ASASSLMDKEAVYFAHLDIIW)
change in cerebral blood flow ([1]; ET-1 0.75 μg/kg, i.v., FIG. 5): no significant change
persistence of the decrease in renal blood flow ([2]; IRL-1620 5 μg/kg, ET-1 0.75 μg/kg, FIG. 8): approximately 15 minutes
decrease in renal blood flow ([2]; at 1 minute, IRL-1620 5 μg/kg, ET-1 0.75 μg/kg, FIG. 8): 40.27%
decrease in renal blood flow ([2]; at 5 minutes, IRL-1620 5 μg/kg, ET-1 0.75 μg/kg, FIG. 8): 50.10%
decrease in renal blood flow ([2]; at 10 minutes, IRL-1620 5 μg/kg, ET-1 0.75 μg/kg, FIG. 8): 26.33%
decrease in mean arterial pressure ([3]; at 0.2 minute, ET-1 0.75 μg/kg): 43.16%
decrease in mean arterial pressure ([3]; at 0.5 minute, ET-1 0.75 μg/kg): 37.80%
decrease in mean arterial pressure ([3]; at 1 minute, ET-1 0.75 μg/kg): 19.30%
increase in mean arterial pressure (subsequent hypertension) ([3]; at 5 minutes, ET-1 0.75 μg/kg): 12.72%
increase in mean arterial pressure (subsequent hypertension) ([3]; at 10 minutes, ET-1 0.75 μg/kg): 25.56%
increase in mean arterial pressure (subsequent hypertension) ([3]; at 15 minutes, ET-1 0.75 μg/kg): 28.49%
effect on heart rate (Table 1) ([4]; i.v. after saline, ET-1 with or without pretreatment): No significant alteration
effect on arterial blood gases (text to Table 2) [5]: Neither IRL-1620 nor ET-1 significantly affected blood gases
arterial blood pCO2 [5, 6]: 34 ± 3
arterial blood pH [5, 6]: 7.32 ± 0.01
arterial blood pO2 [5, 6]: 118 ± 4
arterial blood pCO2 ([5]; time 60 min): 40 ± 4
arterial blood pH ([5]; time 60 min): 7.29 ± 0.01
arterial blood pO2 ([5]; time 60 min): 110 ± 2
arterial blood pCO2 ([5]; time 120 min): 38 ± 4
arterial blood pH ([5]; time 120 min): 7.27 ± 0.01
arterial blood pO2 ([5]; time 120 min): 116 ± 5
